Measurements: PMC5004841, “Development of a rapid phenotypic test for HCV protease inhibitors with potential use in clinical decisions” (Genetics and Molecular Biology, 2016)

What was measured:
[1] = target: T1, HCV genotype 1b NS3-4A protease WT (Hepatitis C virus genotype 1b, UniProt Q9WMX2); assay: FRET enzyme inhibition assay, NS3 WT (SensoLyte 520 HCV protease assay Kit); assay type: biochemical, hepatitis C virus (HCV) genotype 1b
T1 construct: covalently joined to the NS3 protease domain (aa 1-182) via an amino acid linker GSGS; 6x histidine tag (N); TEV protease cleavage site (N); NS4A central peptide (NS4A aa 21-32), fused N-terminally of NS3; made in house; host or cells: E. coli BL21 (λDE3)
T1 sequence (Q9WMX2 1027-1208 limits assumed): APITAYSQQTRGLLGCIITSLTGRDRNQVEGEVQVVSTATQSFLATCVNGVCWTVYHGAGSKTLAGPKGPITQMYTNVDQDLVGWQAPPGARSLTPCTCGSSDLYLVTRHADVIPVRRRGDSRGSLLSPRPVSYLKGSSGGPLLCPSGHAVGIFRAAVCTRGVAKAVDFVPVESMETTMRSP
From the text: (§1) The HCV genotype 1b NS3-4A protease domain from the plasmid pFKI389 Luc-ubi-neo/NS3-3'/ET (kindly provided by Dr. Ralf Bartenschlager) was amplified with the antisense primer 5'-[…]-3'containing a BamHI enzyme restriction site and the sense primer 5'-[…]-3' containing a HindIII enzyme restriction site. This fragment was cloned into a pET21dhis-TEV bacterial expression vector (a pET21d plasmid, which was modified to codify a 6x histidine tag followed by a cleavage site recognized by the Tobacco Etch virus nTev protease at the protein N-terminus). The single chain NS3-4A protease contains the protease domain (182 amino acids) and a 20-aa portion of the cofactor NS4A ([Abrahim-Vieira et al., 2014]).
Protein expressions were carried out as described previously with some modifications to simplify techniques and to perform the protocol in a smaller inoculum volume ([Abrahim-Vieira et al., 2014]). Transformed BL21 (λDE3) cells were grown at 37°C in 500 mL of LB medium containing […] ampicilin until an OD600 of 0.6-0.8 was reached. Then, cultures were induced with 0.5 mM isopropyl-1-thio-β-D-galactopyranoside (IPTG) and incubated with shaking at 25 °C for 4 h. Cells expressing NS3-4A constructs were harvested by centrifugation and stored at −80 °C. […] Purified NS3-4A constructs were quantified with Micro BCA Protein Assay Kit (Thermo Scientific). […]

HCV NS3-4A protease T54A = conditions: mutant T54A vs NS3 WT
From the text: as §1
(§2) Protein expressions were carried out as described previously with some modifications to simplify techniques and to perform the protocol in a smaller inoculum volume ([Abrahim-Vieira et al., 2014]). Transformed BL21 (λDE3) cells were grown at 37°C in 500 mL of LB medium containing […] ampicilin until an OD600 of 0.6-0.8 was reached. Then, cultures were induced with 0.5 mM isopropyl-1-thio-β-D-galactopyranoside (IPTG) and incubated with shaking at 25 °C for 4 h. Cells expressing NS3-4A constructs were harvested by centrifugation and stored at −80 °C. All resuspension steps were performed at 4 °C. Frozen pellets were resuspended in 12.5 mL of buffer A (Tris-HCl 50 mM pH 7.5; NaCl 300 mM; 2 mM β-mercaptoethanol; 10% glycerol; 0.5% Triton X-100). After resuspension, lysates were treated with lysozyme (5 mg/mL) for 1 h with stirring, subjected to 20 cycles of 15 s of sonication and 30 s of resting. Lysates were cleared by centrifugation at 12.000 g for 30 min and the supernatant filtered with 0.22 μM filter units (Nalgene). After filtration, supernatants were applied in 2 mL of Ni-NTA Agarose (Life Technologies) previously washed with distilled water and equilibrated with buffer A. Agarose resin was washed three times with buffer A and recombinant proteins were eluted with buffer A with 125, 250 and 500 mM imidazol (buffer B). […] Fractions were pooled and dialyzed overnight against buffer A with SnakeSkin Dialysis Tubing 10K MWCO (Thermo Scientific). Purified NS3-4A constructs were quantified with Micro BCA Protein Assay Kit (Thermo Scientific).
(§3) All enzyme inhibition assays were performed in nonbinding black surface 96-well plates (Corning).

[2] = test system: HCV NS3-4A protease T54S + V170I; conditions: mutant T54S + V170I vs NS3 WT
From the text: as §1, §2, §3

[3] = test system: HCV NS3-4A protease V158I; conditions: mutant V158I vs NS3 WT
From the text: as §1, §2, §3

[4] = test system: HCV NS3-4A protease V170I; conditions: mutant V170I vs NS3 WT
From the text: as §1, §2, §3

HCV NS3-4A protease V36M = conditions: mutant V36M vs NS3 WT
From the text: as §1, §2, §3

COc1ccc2c(O[C@@H]3C[C@H]4C(=O)N[C@]5(C(=O)NS(=O)(=O)C6CC6)C[C@H]5/C=C\CCCCN(C)C(=O)[C@@H]4C3)cc(-c3nc(C(C)C)cs3)nc2c1C [Simeprevir] was tested, and the IC50 [1] was 0.017 µM, the “fold change (mutant IC50 median/WT IC50 median)” value (“fold change” below) (HCV NS3-4A protease T54A) was 6.3 fold and the “fold change” value [2] was 3.8 fold. The “fold change” value [3] was 0.1 fold, the “fold change” value [4] was 3.2 fold and the “fold change” value (HCV NS3-4A protease V36M) was 0.4 fold.
For CCC[C@H](NC(=O)[C@@H]1[C@H]2CCC[C@H]2CN1C(=O)[C@@H](NC(=O)[C@@H](NC(=O)c1cnccn1)C1CCCCC1)C(C)(C)C)C(=O)C(=O)NC1CC1 [Telaprevir], the IC50 [1] was 0.13 µM.
